From patent US6605637B1, “Lipoic acid derivatives, their preparation, and pharmaceutical compositions containing them” (Societe de Conseils de Recherches et d'Applications …, priority 1999, dated 2003)
pEC50: −log10 of the molar value. Where a name gives a salt, the structure may show the parent alone.

Test system: HT-22 cells
Assay: Protection of HT-22 cells from oxidation stress induced by glutamate (MTT viability)
Format: cell-based
Settings: HT-22 mouse hippocampal line; glutamate 5 mM; viability after 24 h by MTT
Experimental: Study of the Effects on the Oxidation Stress Induced by Glutamate on Cells in Culture (HT-22).
The inhibitory activity of the products of the invention is determined by measuring their ability to protect the cells of a mouse hippocampal line (HT-22) of an oxidation stress caused by glutamate. The biosynthesis of glutathione, an essential element of cell detoxification of free radicals, requires the active transport of cystine to the interior of the cell. The glutamate by opposing the penetration of cystine causes a reduction in the level of glutathione which leads to the death of the cell due to oxidation stress (Davis, J. B. and Maher, P., Brain Res., (1994) 652: 169-173; Murphy, T. H. et al., Neuron, (1989) 2: 1547-1558). The cells are cultured at 37° C. in a DMEM medium with 10% of foetal calf serum added to it. The tests are carried out in 96-well plates containing 5000 cells per well. The glutamate (5 mM) is added to the medium containing or not containing the products to be tested. The cell viability is tested after 24 h by the MTT method (Hansen, M. B. et al., J Immunol. Methods (1989), 119, 203-210). The ability of the compounds to protect the cells from the toxic action of the glutamate is estimated in EC50, calculated relative to the viability of cells which have not been subjected to the action of glutamate considered as 100% viability.

SMILES	pEC50
N=C(Nc1ccc(CCNC(=O)CC2CCSS2)cc1)c1cccs1 (stereo not shown) [Example 3, N-{2-{4[[(2-Thienyl)(imino)methyl]amino]phenyl}ethyl}-1,2-dithiolane-3-acetamide Hydrochloride]	> 4.52
N=C(Nc1ccc(NC(=O)CCCCC2CCSS2)cc1)c1cccs1 (stereo not shown) [Example 1, N-{4-[[(2-Thienyl)(imino)methyl]amino]phenyl}-1,2-dithiolane-3-pentanamide Hydrochloride]	> 4.52
N=C(Nc1ccc(CCNC(=O)CCCCC2CCSS2)cc1)c1cccs1 (stereo not shown) [Example 2, N-{2-{4[[(2-Thienyl)(imino)methyl]amino]phenyl}ethyl}-1,2-dithiolane-3-pentanamide]	> 4.52
Cc1cc(N)nc(CCCCNC(=O)CC2CCSS2)c1 (stereo not shown) [Example 5, N-[4-(6-Amino-4-methyl-2-pyridinyl)butyl]-1,2-dithiolane-3-acetamide Fumarate]	> 4.52
